What was measured:
[1] = biological target: recombinant human 11β-HSD type 1 enzyme (Homo sapiens, UniProt P28845); experiment: 11β-HSD Type 1 Enzyme Assay (NADPH fluorescence); format: biochemical; conditions: three hour incubation at room temperature, read-out: Human 11-βHSD1 IC50
Method: 11β-HSD Type 1 Enzyme Assay
Human 11β-HSD type 1 activity is measured by assaying NADPH production by fluorescence assay. Solid compounds are dissolved in DMSO to a concentration of 10 mM. Twenty microliters of each are then transferred to a column of a 96-well polypropylene Nunc plate where they are further diluted 50-fold followed by subsequent two-fold titration, ten times across the plate with additional DMSO using a Tecan Genesis 200 automated system. Plates are then transferred to a Tecan Freedom 200 system with an attached Tecan Temo 96-well head and an Ultra 384 plate reader. Reagents are supplied in 96-well polypropylene Nunc plates and are dispensed individually into black 96-well Molecular Devices High Efficiency assay plates (40 μL/well capacity) in the following fashion: 9 μL/well of substrate (2.22 mM NADP, 55.5 μM Cortisol, 10 mM Tris, 0.25% Prionex, 0.1% Triton X100), 3 μL/well of water to compound wells or 3 μL to control and standard wells, 6 μL/well recombinant human 11β-HSD type 1 enzyme, 2 μL/well of compound dilutions. For ultimate calculation of percent inhibition, a series of wells are added that represent assay minimum and maximum: one set containing substrate with 667 μM carbenoxolone (background), and another set containing substrate and enzyme without compound (maximum signal). Final DMSO concentration is 0.5% for all compounds, controls and standards. Plates are then placed on a shaker by the robotic arm of the Tecan for 15 seconds before being covered and stacked for a three hour incubation period at room temperature. Upon completion of this incubation, the Tecan robotic arm removes each plate individually from the stacker and places them in position for addition of 5 μL/well of a 250 μM carbenoxolone solution to stop the enzymatic reaction. Plates are then shaken once more for 15 seconds then placed into an Ultra 384 microplate reader (355EX/460EM) for detection of NADPH fluorescence.

[2] = biological target: T1, 11β-HSD1 in primary human aortic smooth muscle cells (AoSMC) (Homo sapiens, UniProt P28845); experiment: Human Aortic Smooth Muscle Cell Assay (cortisone to cortisol conversion); format: cell-based; conditions: AoSMC induced with hTNFα; cortisol measured after 16 hours with cortisone
T1 construct: containing 12 ng/mL hTNFα to induce expression of 11β-HSD1; endogenous in cells; host or cells: primary human aortic smooth muscle cells (AoSMC), induced with hTNFα
Method: Human Aortic Smooth Muscle Cell Assay
Primary human aortic smooth muscle cells (AoSMC) are cultured in 5% FBS growth medium to a passage number of 6, then pelleted by centrifugation and resuspended at a density of 9×10^4 cells/mL in 0.5% FBS assay medium containing 12 ng/mL hTNFα to induce expression of 11β-HSD1. Cells are seeded into 96-well tissue culture assay plates at 100 μL/well (9×10^3 cells/well) and incubated for 48 hours at 37° C., 5% CO2. Following induction, cells are incubated for 4 hours at 37° C., 5% CO2 in assay medium containing test compounds then treated with 10 μL/well of 10 μM cortisone solubilized in assay medium, and incubated for 16 hours at 37° C., 5% CO2. Medium from each well is transferred to a plate for subsequent analysis of cortisol using a competitive fluorescence resonance time resolved immunoassay. […] Higher levels of free cortisol result in diminishing energy transfer from the Europium-IgG to the APC-cortisol complex resulting in less APC fluorescence. Fluorescent intensities for Europium and APC are measured using a LJL Analyst AD. Europium and APC […] is measured using 360 nm excitation and 615 nm and 650 nm emission filters respectively. […] Fluorescent intensities measured for APC are modified by dividing by the Eu fluorescence (APC/Eu). […]

[3] = tested on: cortisone conversion to cortisol (11β-HSD1); experiment: Acute In Vivo Cortisone Conversion Assay; parameters: species or system male C57BL/6 mice; conditions: mice, oral dose 10 mg/kg, cortisone challenge s.c. 30 mg/kg, 16 hours post compound dose, serum cortisol
Method: Acute In Vivo Cortisone Conversion Assay
In general, compounds are dosed orally into mice, the mice are challenged with a subcutaneous injection of cortisone at a set timepoint after compound injection, and the blood of each animal is collected some time later. Separated serum is then isolated and analyzed for levels of cortisone and cortisol by LC-MS/MS, followed by calculation of mean cortisol and percent inhibition of each dosing group. Specifically, male C57BL/6 mice are obtained from Harlan Sprague Dawley at average weight of 25 grams. Exact weights are taken upon arrival and the mice randomized into groups of similar weights. Compounds are prepared in 1% w-w HEC, 0.25% w-w polysorbate 80, 0.05% w-w Dow Corning antifoam #1510-US at various doses based on assumed average weight of 25 grams. Compounds are dosed orally, 200 μl per animal, followed by a subcutaneous dose, 200 μl per animal, of 30 mg/kg cortisone at 1 to 24 hours post compound dose. At 10 minutes post cortisone challenge, each animal is euthanized for 1 minute in a CO2 chamber, followed by blood collection via cardiac puncture into serum separator tubes. Once fully clotted, tubes are spun at 2500×g, 4° C. for 15 minutes, the serum transferred to wells of 96-well plates (Corning Inc, Costar #4410, cluster tubes, 1.2 ml, polypropylene), and the plates are frozen at −20° C. until analysis by LC-MS/MS. […]

Chain of recombinant human 11β-HSD type 1 enzyme (P28845 whole entry): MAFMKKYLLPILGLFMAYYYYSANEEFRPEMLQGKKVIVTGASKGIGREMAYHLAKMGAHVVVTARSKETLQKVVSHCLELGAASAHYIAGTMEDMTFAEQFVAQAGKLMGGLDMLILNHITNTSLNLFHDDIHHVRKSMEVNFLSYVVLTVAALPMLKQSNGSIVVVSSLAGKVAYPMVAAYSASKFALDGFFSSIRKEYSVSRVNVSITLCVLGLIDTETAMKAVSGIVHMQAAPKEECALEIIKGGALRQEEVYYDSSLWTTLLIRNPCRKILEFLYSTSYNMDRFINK
T1 sequence (P28845 whole entry): as above

IC50 [1] [nM] | IC50 [2] [nM] | SMILES | % Inhibition after 16 hours (dose of 10 (mg/kg)) [3] [%]
686 | 55.1 | O=C(c1ccc(-c2cc(Cl)c(C[C@@H]3CCN(C4CCC(F)(F)CC4)C3=O)c(Cl)c2)cc1)N1CCC(C(F)(F)F)CC1 [Example 3, (R)-3-[3,5-Dichloro-4′-(4-trifluoromethyl-piperidine-1-carbonyl)-biphenyl-4-ylmethyl]-1-(4,4-difluoro-cyclohexyl)-pyrrolidin-2-one] | 60.7
382 | – | O=C(c1ccc(-c2cc(Cl)c(C[C@@H]3CCN(C4CCC(F)(F)CC4)C3=O)c(Cl)c2)cc1)N1CCS(=O)(=O)CC1 [Example 4, (R)-3-[3,5-Dichloro-4′-(1,1-dioxo-1lamda*6*-thiomorpholine-4-carbonyl)-biphenyl-4-ylmethyl]-1-(4,4-difluoro-cyclohexyl)-pyrrolidin-2-one] | 50.2
584 | 5.5 | O=C(c1ccc(-c2cc(Cl)c(C[C@@H]3CCN([C@H]4CC[C@@H](F)CC4)C3=O)c(Cl)c2)cc1)N1CCC(C(F)(F)F)CC1 [Example 9, (R)-3-[3,5-Dichloro-4′-(4-trifluoromethyl-piperidine-1-carbonyl)-biphenyl-4-ylmethyl]-cis-1-(4-fluoro-cyclohexyl)-pyrrolidin-2-one] | –

Source: US7816349B2, “Substituted pyrrolidinones as inhibitors of 11-beta-hydroxysteroid dehydrogenase 1” (Eli Lilly and Company, priority 2006, dated 2010)
